Experiment [1] addresses Growth hormone secretagogue receptor type 1 (Homo sapiens, UniProt Q92847).
The target in experiment [2] is T1, Muscarinic acetylcholine receptor M1 (Homo sapiens, UniProt P11229).
T1 sequence (P11229 whole entry): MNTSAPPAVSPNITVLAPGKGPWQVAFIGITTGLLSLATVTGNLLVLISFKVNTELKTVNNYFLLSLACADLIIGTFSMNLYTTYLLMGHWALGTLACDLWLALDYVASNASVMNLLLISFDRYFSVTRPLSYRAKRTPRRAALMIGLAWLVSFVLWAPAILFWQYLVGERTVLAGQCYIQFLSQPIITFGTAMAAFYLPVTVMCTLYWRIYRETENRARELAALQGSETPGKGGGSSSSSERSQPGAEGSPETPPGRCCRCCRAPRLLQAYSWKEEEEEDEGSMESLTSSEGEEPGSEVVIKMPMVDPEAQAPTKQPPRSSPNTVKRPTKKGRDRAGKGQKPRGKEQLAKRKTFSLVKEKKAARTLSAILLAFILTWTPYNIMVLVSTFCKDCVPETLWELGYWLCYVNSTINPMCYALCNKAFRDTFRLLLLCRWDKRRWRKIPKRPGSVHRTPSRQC
It counts as functional.

In experiment [3] the target is 5-hydroxytryptamine receptor 2B (Homo sapiens, UniProt P41595). It counts as functional, cell-based.
Experiment [4] addresses Kappa-type opioid receptor (Homo sapiens, UniProt P41145).
The target in the next experiment is Melanocortin receptor 3 (Homo sapiens, UniProt P41968).
Another experiment concerns the target Cannabinoid receptor 1 (Homo sapiens, UniProt P21554). The class given is functional, cell-based.
For experiment [5], the target named is 5-hydroxytryptamine receptor 2A (Homo sapiens, UniProt P28223). It counts as functional, cell-based.
Experiment [6] concerns the target Glutamate receptor ionotropic, NMDA 1 (Rattus norvegicus, UniProt P35439).
The target of experiment [7] is Voltage-dependent L-type calcium channel subunit alpha-1C (Rattus norvegicus, UniProt P22002). It counts as functional.
Experiment [8] concerns the target T1, Muscarinic acetylcholine receptor M1. The class given is functional, cell-based.
For experiment [9] the target is unchanged. The class given is functional, cell-based. This is another data set of the same source.
The target of experiment [10] is Gamma-aminobutyric acid receptor subunit alpha-1 (Rattus norvegicus, UniProt P62813).
The target in the next experiment is T2, Thromboxane A2 receptor (Homo sapiens, UniProt P21731).
T2 sequence (P21731 whole entry): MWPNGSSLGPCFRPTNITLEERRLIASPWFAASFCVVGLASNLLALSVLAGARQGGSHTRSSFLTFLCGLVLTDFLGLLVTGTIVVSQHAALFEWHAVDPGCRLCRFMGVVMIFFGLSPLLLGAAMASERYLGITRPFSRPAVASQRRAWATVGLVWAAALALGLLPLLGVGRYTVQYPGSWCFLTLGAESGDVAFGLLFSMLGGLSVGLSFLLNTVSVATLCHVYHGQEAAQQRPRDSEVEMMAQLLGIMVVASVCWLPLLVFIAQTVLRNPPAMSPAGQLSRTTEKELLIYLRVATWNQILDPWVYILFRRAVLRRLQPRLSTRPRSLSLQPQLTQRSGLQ
The class given is functional, cell-based.

Among the data in ChEMBL document CHEMBL5291721, “A preclinical secondary pharmacology resource illuminates target-adverse drug reaction associations of marketed drugs” (Nat Commun, 2023) are AC50 values, retold here.

In general, AC50 refers to the concentration at which the activity in the assay is half-maximal.
Also: assay procedure not described here.

Chain of Gamma-aminobutyric acid receptor subunit alpha-1 (P62813 whole entry): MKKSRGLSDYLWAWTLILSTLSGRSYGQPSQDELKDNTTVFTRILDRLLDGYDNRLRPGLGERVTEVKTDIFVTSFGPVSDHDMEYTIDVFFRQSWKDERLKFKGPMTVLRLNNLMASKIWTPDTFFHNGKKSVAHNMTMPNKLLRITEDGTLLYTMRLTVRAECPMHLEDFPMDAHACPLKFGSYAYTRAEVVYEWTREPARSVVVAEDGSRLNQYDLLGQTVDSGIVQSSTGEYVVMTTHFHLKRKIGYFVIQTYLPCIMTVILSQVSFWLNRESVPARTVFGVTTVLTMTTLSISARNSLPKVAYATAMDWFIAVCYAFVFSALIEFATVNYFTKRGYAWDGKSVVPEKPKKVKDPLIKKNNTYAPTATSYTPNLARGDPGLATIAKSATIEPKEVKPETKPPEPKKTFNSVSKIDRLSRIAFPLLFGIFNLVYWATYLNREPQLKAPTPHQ
Chain of 5-hydroxytryptamine receptor 2B (P41595 whole entry): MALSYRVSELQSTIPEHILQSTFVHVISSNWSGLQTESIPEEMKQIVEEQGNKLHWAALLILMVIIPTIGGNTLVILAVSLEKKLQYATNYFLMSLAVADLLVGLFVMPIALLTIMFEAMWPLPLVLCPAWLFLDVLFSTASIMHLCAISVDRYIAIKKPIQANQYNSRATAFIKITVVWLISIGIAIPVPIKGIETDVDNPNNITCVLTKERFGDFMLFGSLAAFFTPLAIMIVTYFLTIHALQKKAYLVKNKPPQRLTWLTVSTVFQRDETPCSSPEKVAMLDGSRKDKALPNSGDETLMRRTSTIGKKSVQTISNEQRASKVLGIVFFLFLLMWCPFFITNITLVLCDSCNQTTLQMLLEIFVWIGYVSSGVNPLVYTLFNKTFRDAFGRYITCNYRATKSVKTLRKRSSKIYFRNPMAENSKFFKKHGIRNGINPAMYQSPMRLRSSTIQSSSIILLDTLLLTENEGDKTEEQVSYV
Chain of Voltage-dependent L-type calcium channel subunit alpha-1C (P22002 whole entry): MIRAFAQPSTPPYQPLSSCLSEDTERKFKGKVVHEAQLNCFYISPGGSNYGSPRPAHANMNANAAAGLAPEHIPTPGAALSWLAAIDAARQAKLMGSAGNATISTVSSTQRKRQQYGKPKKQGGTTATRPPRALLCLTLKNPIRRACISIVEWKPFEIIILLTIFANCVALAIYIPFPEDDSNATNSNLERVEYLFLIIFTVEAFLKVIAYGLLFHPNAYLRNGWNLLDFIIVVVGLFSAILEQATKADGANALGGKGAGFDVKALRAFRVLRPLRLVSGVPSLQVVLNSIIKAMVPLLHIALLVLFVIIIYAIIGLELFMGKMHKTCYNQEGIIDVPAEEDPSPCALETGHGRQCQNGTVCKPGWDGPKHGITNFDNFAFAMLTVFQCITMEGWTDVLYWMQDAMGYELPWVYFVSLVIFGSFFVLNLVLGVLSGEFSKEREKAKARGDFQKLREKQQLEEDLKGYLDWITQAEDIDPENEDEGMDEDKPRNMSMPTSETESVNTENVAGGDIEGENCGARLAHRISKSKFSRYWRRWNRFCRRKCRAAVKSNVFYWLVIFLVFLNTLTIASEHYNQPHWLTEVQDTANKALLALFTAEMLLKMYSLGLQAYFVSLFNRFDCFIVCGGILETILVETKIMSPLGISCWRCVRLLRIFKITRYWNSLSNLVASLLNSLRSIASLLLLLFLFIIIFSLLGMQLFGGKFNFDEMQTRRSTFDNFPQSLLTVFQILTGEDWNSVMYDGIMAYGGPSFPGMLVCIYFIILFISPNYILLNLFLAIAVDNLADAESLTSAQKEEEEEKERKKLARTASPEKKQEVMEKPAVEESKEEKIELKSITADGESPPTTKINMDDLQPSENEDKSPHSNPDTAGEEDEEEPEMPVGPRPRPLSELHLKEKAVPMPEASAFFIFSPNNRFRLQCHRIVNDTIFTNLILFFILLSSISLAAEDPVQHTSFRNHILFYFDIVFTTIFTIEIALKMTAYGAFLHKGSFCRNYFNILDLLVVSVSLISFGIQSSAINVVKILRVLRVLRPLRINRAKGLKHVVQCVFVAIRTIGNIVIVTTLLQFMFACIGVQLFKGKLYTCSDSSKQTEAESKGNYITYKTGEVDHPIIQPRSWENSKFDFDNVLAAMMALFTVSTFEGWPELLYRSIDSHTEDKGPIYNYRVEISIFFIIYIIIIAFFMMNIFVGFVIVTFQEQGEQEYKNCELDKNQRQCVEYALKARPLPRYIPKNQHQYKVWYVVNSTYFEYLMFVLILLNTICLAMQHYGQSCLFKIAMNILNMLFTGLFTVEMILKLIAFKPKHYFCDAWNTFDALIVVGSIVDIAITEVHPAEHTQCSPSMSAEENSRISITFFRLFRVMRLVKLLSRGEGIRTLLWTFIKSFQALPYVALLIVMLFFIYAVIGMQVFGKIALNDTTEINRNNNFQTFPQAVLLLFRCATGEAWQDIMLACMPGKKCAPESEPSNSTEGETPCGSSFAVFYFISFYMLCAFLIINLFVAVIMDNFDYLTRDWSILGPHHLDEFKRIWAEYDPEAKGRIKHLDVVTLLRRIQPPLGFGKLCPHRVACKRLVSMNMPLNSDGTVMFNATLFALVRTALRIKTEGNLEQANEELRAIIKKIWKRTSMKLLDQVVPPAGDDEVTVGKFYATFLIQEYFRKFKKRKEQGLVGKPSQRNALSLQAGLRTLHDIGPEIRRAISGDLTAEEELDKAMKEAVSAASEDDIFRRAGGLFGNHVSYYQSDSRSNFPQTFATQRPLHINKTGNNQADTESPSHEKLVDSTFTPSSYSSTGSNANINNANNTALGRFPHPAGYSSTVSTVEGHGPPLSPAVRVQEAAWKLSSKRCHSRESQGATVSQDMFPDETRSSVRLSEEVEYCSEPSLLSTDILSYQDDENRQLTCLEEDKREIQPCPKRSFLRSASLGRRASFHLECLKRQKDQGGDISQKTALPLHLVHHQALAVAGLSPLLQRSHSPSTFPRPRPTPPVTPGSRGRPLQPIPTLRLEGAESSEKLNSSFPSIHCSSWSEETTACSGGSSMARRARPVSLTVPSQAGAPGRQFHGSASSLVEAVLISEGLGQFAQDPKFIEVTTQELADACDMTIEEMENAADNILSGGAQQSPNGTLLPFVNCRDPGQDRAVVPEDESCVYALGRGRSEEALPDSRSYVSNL
Chain of Cannabinoid receptor 1 (P21554 whole entry): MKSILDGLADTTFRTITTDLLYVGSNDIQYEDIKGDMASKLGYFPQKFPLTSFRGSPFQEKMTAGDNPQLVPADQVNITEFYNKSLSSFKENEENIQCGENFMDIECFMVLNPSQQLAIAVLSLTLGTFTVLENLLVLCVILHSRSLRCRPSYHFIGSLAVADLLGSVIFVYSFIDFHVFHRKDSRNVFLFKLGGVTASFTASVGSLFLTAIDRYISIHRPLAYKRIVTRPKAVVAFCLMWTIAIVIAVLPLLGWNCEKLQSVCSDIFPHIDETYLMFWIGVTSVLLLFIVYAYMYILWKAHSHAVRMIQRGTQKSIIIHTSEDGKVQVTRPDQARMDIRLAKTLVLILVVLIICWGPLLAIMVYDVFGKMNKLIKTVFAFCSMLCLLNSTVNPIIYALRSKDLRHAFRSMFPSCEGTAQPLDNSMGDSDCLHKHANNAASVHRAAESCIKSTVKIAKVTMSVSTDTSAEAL
Chain of Growth hormone secretagogue receptor type 1 (Q92847 whole entry): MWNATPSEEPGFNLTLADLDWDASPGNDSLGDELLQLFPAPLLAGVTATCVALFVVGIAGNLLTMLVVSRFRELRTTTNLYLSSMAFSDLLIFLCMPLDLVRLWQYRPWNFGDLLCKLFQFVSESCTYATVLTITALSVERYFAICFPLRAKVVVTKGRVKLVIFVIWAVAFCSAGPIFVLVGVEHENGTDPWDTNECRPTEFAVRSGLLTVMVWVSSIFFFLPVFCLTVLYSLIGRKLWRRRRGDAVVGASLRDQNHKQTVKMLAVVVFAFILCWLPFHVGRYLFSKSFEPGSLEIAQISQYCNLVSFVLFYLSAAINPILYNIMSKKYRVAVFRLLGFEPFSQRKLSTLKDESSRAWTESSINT
Chain of 5-hydroxytryptamine receptor 2A (P28223 whole entry): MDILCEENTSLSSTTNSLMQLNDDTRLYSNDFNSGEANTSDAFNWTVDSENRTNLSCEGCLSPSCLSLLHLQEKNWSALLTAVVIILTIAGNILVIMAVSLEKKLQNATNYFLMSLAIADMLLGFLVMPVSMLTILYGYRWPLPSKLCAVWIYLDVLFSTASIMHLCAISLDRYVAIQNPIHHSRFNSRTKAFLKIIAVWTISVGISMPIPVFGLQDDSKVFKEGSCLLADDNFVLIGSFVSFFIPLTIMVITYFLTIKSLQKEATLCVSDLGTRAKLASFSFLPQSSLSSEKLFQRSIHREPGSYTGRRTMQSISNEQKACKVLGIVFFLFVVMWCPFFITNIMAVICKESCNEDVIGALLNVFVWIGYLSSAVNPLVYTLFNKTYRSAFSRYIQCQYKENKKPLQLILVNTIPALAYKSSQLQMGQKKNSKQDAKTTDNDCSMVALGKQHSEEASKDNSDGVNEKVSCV
Chain of Kappa-type opioid receptor (P41145 whole entry): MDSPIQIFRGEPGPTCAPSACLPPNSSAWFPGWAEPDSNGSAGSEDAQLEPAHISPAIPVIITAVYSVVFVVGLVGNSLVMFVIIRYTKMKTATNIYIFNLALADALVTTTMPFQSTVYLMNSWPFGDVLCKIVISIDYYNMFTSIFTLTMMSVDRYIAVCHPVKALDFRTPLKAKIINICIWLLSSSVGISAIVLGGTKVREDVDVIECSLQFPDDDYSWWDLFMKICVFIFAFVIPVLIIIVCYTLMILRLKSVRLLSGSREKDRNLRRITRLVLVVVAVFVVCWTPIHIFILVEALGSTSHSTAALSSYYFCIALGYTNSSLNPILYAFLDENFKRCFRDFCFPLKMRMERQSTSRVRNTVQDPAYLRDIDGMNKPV

On to `Oc1cc(Cl)ccc1Oc1ccc(Cl)cc1Cl` [TRICLOSAN], for which the AC50 (in experiment [1]; in experiment [2]; in experiment [3]; in [4]; at Melanocortin receptor 3; on Cannabinoid receptor 1) was > 30 µM throughout. Moreover, the AC50 in experiment [5] and in experiment [6] was > 30 µM throughout.

For the compound `CC(C)(Oc1ccc(Cl)cc1)C(=O)OCCOC(=O)c1cccnc1` [ETOFIBRATE], the AC50 (in [7]; in experiment [1]; in [2]; in [3]; in [4]; at Melanocortin receptor 3) was > 30 µM throughout. The AC50 (at Cannabinoid receptor 1; in experiment [5]; in experiment [6]) was > 30 µM in each case.

Consider `CN(C)CCC(O)(c1ccccc1)c1ccccc1Cl` (stereo unspecified) [CHLOPHEDIANOL], for which the AC50 in experiment [7] is > 10 µM; in experiment [1], > 10 µM; in experiment [2], > 10 µM; in experiment [3] it was > 10 µM; in experiment [4], 7.1 µM; on Melanocortin receptor 3, > 10 µM. For the same compound, the AC50 is > 30 µM on Cannabinoid receptor 1, > 10 µM in experiment [5] and > 10 µM in [6].

In the case of `CC(C)=CCC/C(C)=C/CC/C(C)=C/CC/C(C)=C/CC1=C(C)C(=O)c2ccccc2C1=O` [MENATETRENONE], the AC50 (in experiment [8]; in [9]; in experiment [10]; at Thromboxane A2 receptor) was > 30 µM throughout.

With `COc1ccc(-c2cc(=S)ss2)cc1` [ANETHOLTRITHION], the AC50 in experiment [7] is > 30 µM; in [1], > 30 µM; in [2], > 30 µM; in experiment [3], > 30 µM; in experiment [4], > 30 µM; on Melanocortin receptor 3, 18 µM. The AC50 (on Cannabinoid receptor 1; in experiment [5]; in experiment [6]) was > 30 µM in each case.

Take `C[C@]12C=CC(=O)C=C1CC[C@@H]1[C@@H]2[C@@H](O)C[C@@]2(C)[C@H]1CC[C@]2(O)C(=O)CO` [PREDNISOLONE]: the AC50 is > 10 µM in [7]; > 30 µM in experiment [1]; > 10 µM in experiment [3]; > 10 µM in experiment [4]; > 30 µM at Melanocortin receptor 3; > 30 µM at Cannabinoid receptor 1. The AC50 in [6] was > 10 µM.

With `CNC(=O)c1cnn(-c2nc(N)c3ncn([C@@H]4O[C@H](CO)[C@@H](O)[C@H]4O)c3n2)c1` [REGADENOSON ANHYDROUS], the AC50 (in experiment [8]; in experiment [9]; in experiment [10]; at Thromboxane A2 receptor) was > 30 µM throughout.

Regarding `CC(C)NC[C@H](O)COc1ccc(CCOCC2CC2)cc1` [LEVOBETAXOLOL], the AC50 (in experiment [8]; in [9]; in experiment [10]; on Thromboxane A2 receptor) was > 30 µM in each case.

As to `CN1CCc2c(c3ccccc3n2Cc2ccccc2)C1` [MEBHYDROLIN], the AC50 in [8] was > 30 µM; in experiment [9] it was 1.96 µM; in experiment [10] it was 25.4 µM; on Thromboxane A2 receptor, > 30 µM.

Turning to `N[C@@H](Cc1ccc(O)cc1)C(=O)O` [TYROSINE], the AC50 (in experiment [8]; in experiment [9]; in experiment [10]; at Thromboxane A2 receptor) was > 30 µM throughout.

Take `CN(C)[C@@H]1C(O)=C(C(=O)NCN2CCCC2)C(=O)[C@@]2(O)C(O)=C3C(=O)c4c(O)cccc4[C@@](C)(O)[C@H]3C[C@@H]12` [ROLITETRACYCLINE]: the AC50 (in experiment [7]; in experiment [1]; in experiment [2]; in experiment [3]; in experiment [4]; at Melanocortin receptor 3) was > 10 µM throughout. Moreover, the figures for the AC50 (at Cannabinoid receptor 1; in experiment [5]; in experiment [6]) were > 30 µM, > 30 µM and > 10 µM, respectively.

Consider `CC(=O)OCC(=O)[C@@]1(O)CC[C@H]2[C@@H]3C[C@H](C)C4=CC(=O)C=C[C@]4(C)[C@H]3[C@@H](O)C[C@@]21C` [METHYLPREDNISOLONE ACETATE], for which the AC50 (in experiment [8]; in [9]; in experiment [10]; at Thromboxane A2 receptor) was > 30 µM in each case.

On to `C[C@]12C=CC(=O)C=C1C(Cl)=C[C@@H]1[C@@H]2[C@@H](O)C[C@@]2(C)[C@H]1CC[C@]2(O)C(=O)CO` [CLOPREDNOL], for which the AC50 (in experiment [1]; in experiment [2]; in experiment [3]; in experiment [4]; at Melanocortin receptor 3; on Cannabinoid receptor 1) was > 30 µM each time. Further, the AC50 in [5] and in experiment [6] was > 30 µM in each case.

Regarding `CCOC1O[C@H]([C@@H](COCc2ccccc2)OCc2ccccc2)[C@H](OCc2ccccc2)[C@H]1O` (stereo partly specified) [TRIBENOSIDE], the AC50 in [8] is > 30 µM; in [9] it was 8.21 µM; in experiment [10], > 30 µM; on Thromboxane A2 receptor, 11.9 µM.

For `COc1cccc2c1C(=O)c1c(O)c3c(c(O)c1C2=O)C[C@@](O)(C(=O)CO)C[C@@H]3O[C@H]1C[C@H](N)[C@@H](O)[C@H](C)O1` [EPIRUBICIN], the AC50 (in experiment [10]; at Thromboxane A2 receptor) was > 30 µM in each case.

Take `CC1(C)O[C@@H]2C[C@H]3[C@@H]4CCC5=CC(=O)C=C[C@]5(C)[C@@]4(F)[C@@H](O)C[C@]3(C)[C@]2(C(=O)CO)O1` [TRIAMCINOLONE ACETONIDE]: the AC50 (in experiment [7]; in [1]; in experiment [3]; in experiment [4]; at Melanocortin receptor 3; on Cannabinoid receptor 1) was > 30 µM in each case. Also, in [6], the AC50 is > 30 µM.

Turning to `C[C@]12CCC(=O)C=C1C=C[C@@H]1[C@@H]2CC[C@@]2(C)[C@H]1CC[C@@]21CCC(=O)O1` [CANRENONE], the AC50 in [7] is > 30 µM; in experiment [1], > 30 µM; in experiment [2], > 30 µM; in [3], > 30 µM; in experiment [4], 19 µM; on Melanocortin receptor 3 it was > 30 µM. Also, the AC50 (on Cannabinoid receptor 1; in [5]; in experiment [6]) was > 30 µM each time.

For `C[C@]12CCC(=O)C=C1[C@@H]1C[C@@H]1[C@H]1[C@@H]3[C@@H]4C[C@@H]4[C@@]4(CCC(=O)O4)[C@@]3(C)CC[C@@H]12` [DROSPIRENONE], the AC50 (in experiment [7]; in experiment [1]; in [2]; in experiment [4]; on Melanocortin receptor 3; in experiment [5]) was > 30 µM in each case. Further, the AC50 in experiment [6] was > 30 µM.

Take `CC(C)Cc1ccc(C(C)C(=O)OCc2ccccn2)cc1` (stereo unspecified) [IBUPROFEN PICONOL]: the AC50 in experiment [8] was > 30 µM; in experiment [9] it was > 10 µM; in experiment [10], > 30 µM; on Thromboxane A2 receptor, > 30 µM.

For the compound `COc1cccc2c1C(=O)c1c(O)c3c(c(O)c1C2=O)C[C@@](O)(C(=O)CO)C[C@@H]3O[C@H]1C[C@H](N)[C@H](O)[C@H](C)O1` [DOXORUBICIN], the AC50 in experiment [7] was > 10 µM; in experiment [1], > 30 µM; in experiment [3], 15 µM; in experiment [4], > 10 µM; on Melanocortin receptor 3 it was > 30 µM; in [10], > 30 µM. Besides, the values for the AC50 (on Cannabinoid receptor 1; in experiment [6]; at Thromboxane A2 receptor) were > 30 µM, > 10 µM and > 3 µM, respectively.

For the compound `CCC(=O)c1ccc2c(c1)N(CC(C)N(C)C)c1ccccc1S2` (stereo unspecified) [PROPIOMAZINE], the AC50 in [7] was > 10 µM; in experiment [1] it was > 10 µM; in experiment [2], 0.12 µM; in experiment [3], 0.23 µM; in [4] it was 1.7 µM; on Melanocortin receptor 3 it was > 10 µM. Moreover, the AC50 in experiment [5] and in [6] was > 10 µM throughout.

As to `Cn1c(CCCC(=O)O)nc2cc(N(CCCl)CCCl)ccc21` [BENDAMUSTINE], the AC50 (in [8]; in [9]; in experiment [10]; on Thromboxane A2 receptor) was > 30 µM each time.

For the compound `Cc1cccc(C)c1NC(=O)CN(CC(=O)O)CC(=O)O` [LIDOFENIN], the AC50 (in experiment [8]; in [9]; in experiment [10]; on Thromboxane A2 receptor) was > 30 µM each time.
